Ends that are not written are not given here.
Columns and labels:
[1] = system: neurons removed from rat embryos (mesencephalon, spinal cord, cortex); experiment: Biological effect of pAntp on neuritic growth of cultured neurons; type: cell-based; conditions: rat embryo neurons in CDM medium, peptide 9 µg/ml (equivalent to 1.3M), 24 h
Procedure: The neurons removed from rat embryos (E14 to E 16) in various regions of the brain (mesencephalon, spinal cord, cortex), are inoculated into a defined medium (CHAMAK and PROCHIANTZ, DEVELOPMENT, 106, 483, 1989) which permits the survival of only the neuronal cells (CDM medium).
The peptide is added to the nerve cells at a concentration of […] (equivalent to 1.3M).

[2] = system: dissociated rat embryonic neurons; experiment: Distribution of 35S-methionine labelled peptides in cell compartments and medium; type: cell-based; conditions: for internalization / translocation through the membrane: 35S-labelled peptides, 2 hours; for MEDIUM (peptide distribution, radioactivity in fraction) / NUCLEAR (peptide distribution, radioactivity in fraction) / POST-NUCLEAR (peptide distribution, radioactivity in fraction): 2 hours incubation, mean ± standard deviation of 6 experiments; for share of the peptides that reach the nuclei: within 2 hours
Procedure: Peptides pAntp50A, pAntp48S, and pAntp40P2, labelled in E. coli with ^35 S-methionine were purified and added to dissociated rat embryonic neurons. After incubation for 2 hours, the medium was recovered by centrifugation and, after lysis of the cells with NP40, nuclear and post-nuclear fractions were isolated.
Identity of the radioactive material present in the nuclei was analysed by gel electrophoresis.
After lysis of the neurons, peptide distribution in the different cell compartments and in the medium was quantified by determination of radioactivity in each fraction.

[3] = system: dissociated embryonic cells; experiment: Confocal microscopy of fluoresceinated peptides: internalization and nuclear accumulation; type: cell-based, rat; conditions: 2 hours incubation, cells cultured 1 day before fixation
Source text: The cells were then washed, plated and cultured for 1 day before fixation.

[4] = system: living neurons; experiment: Penetration of biotinylated pAntp fragments encompassing helix 3 into living neurons; type: cell-based; conditions: biotinylated peptides 10 μg/ml, 37° C., 3 hours, fluorinated streptavidin
Procedure: These peptides (10 μg/ml) were separately incubated with living neurons, at 37° C. for 3 hours.
After washing and fixation of the cells, the localisation of the peptides is checked by use of fluorinated streptavidin.

Row | Substance | neuritic growth [1] | internalization / translocation through the membrane [2] | MEDIUM (peptide distribution, radioactivity in fraction) [2] [%] | NUCLEAR (peptide distribution, radioactivity in fraction) [2] [%] | POST-NUCLEAR (peptide distribution, radioactivity in fraction) [2] [%] | share of the peptides that reach the nuclei [2] [%] | uptake and nuclear accumulation by confocal microscopy [3] | intracellular localization of the fluorescent label (penetration) [4]
1 | pAntp40P2: mutant pAntp, Leu^40 and Thr^41 substituted by two proline residues (SEQ ID NO: 12) | none of the mutants pAntp40P2, pAntp50A, and pAntp48S was able to promote neurite growth | internalized rapidly | 87.5 ± 2.5 | 11.5 ± 2 | 1.0 ± 0.5 | 10 to 20 | taken up by all cells in the population and significant concentrations of the peptides accumulated in the nuclei | –
2 | pAntp48S: mutant pAntp, Trp^48, Phe^49 and Glu^50 in helix 3 replaced by a single serine residue (SEQ ID NO. 11) | none of the mutants pAntp40P2, pAntp50A, and pAntp48S was able to promote neurite growth | unable to translocate through the membrane | 96.5 ± 1 | 2.5 ± 0.5 | 1.0 ± 0.5 | – | – | –
3 | pAntp50A: mutant recombinant pAntp, Glu^50 →Ala^50 substitution in helix 3 plus His^36 →Tyr cloning artifact (SEQ ID NO: 10) | none of the mutants pAntp40P2, pAntp50A, and pAntp48S was able to promote neurite growth | internalized rapidly | 75.0 ± 6 | 19.0 ± 5 | 6.0 ± 1 | 10 to 20 | taken up by all cells in the population and significant concentrations of the peptides accumulated in the nuclei | –
4 | pAntp 41-55: synthetic biotinylated peptide, amino-acids 41-55 of pAntp (SEQ ID NO: 9) | – | – | – | – | – | – | – | not
5 | pAntp 41-60: synthetic biotinylated peptide, amino-acids 41-60 of pAntp (SEQ ID NO: 7) (TERQIKIWFQNRRMKWKKEN; also: biotinylated, site not given here) | – | – | – | – | – | – | – | intracellular localization of the fluorescent label
6 | pAntp 43-58: synthetic biotinylated peptide, amino-acids 43-58 of pAntp, helix 3 (SEQ ID NO: 8) (RQIKIWFQNRRMKWKK; also: biotinylated, site not given here) | – | – | – | – | – | – | – | intracellular localization of the fluorescent label
